Source: patent publication US20070148159A1, “Use of crotoxin as an analgesic - CIP” (priority 2005, published 2007)
Structures can show the parent of a compound that is named as a salt.

Legend:
mice = format: in vivo, mouse; conditions: for inhibition of the activity of Crotoxin: summary statement on antagonist studies
[1] = format: in vivo; conditions: hot-plate model; test end point 180 minutes
[2] = cited from earlier work

CN1[C@@H]2CC[C@H]1C[C@@H](OC(=O)C(CO)c1ccccc1)C2 (stereo partly shown) [Atropine]
inhibition of the activity of Crotoxin (mice): failed to inhibit

CCOC(=O)C1(c2ccccc2)CCN(C)CC1 [Dolantin, Meperidine hydrochloride]
time of maximal effect on hot-plate response [1]: 30 min
analgesic potency relative to morphine ([2]; halved again when given orally rather than parenterally): one-tenth as potent an analgesic as morphine
duration of activity ([2]; in vivo): 2 to 4 h
onset of activity ([2]; in vivo): 10 to 45 min

C=CCN1CC[C@]23c4c5ccc(O)c4O[C@H]2C(=O)CC[C@@]3(O)[C@H]1C5 [Naloxone]
effect on Crotoxin-induced analgesia, hotplate test (mice; Atropine 0.25-1 mg/kg, Naloxone 1.25-5 mg/kg): no effect
inhibition of the activity of Crotoxin (mice): failed to inhibit
